Measurements published in patent publication US20260285847A1, “SYMMETRIC AMINOINDOLE-LINKED TRIAZINE FOR A DUAL EFFECT ON ALPHA-SYNUCLEIN AND TAU ISOFORM 2N4R FIBRILLIZATION” (Purdue Research Foundation, priority 2023, published 2026).
“Also recorded” adds a separate entry of the source.

How the values were obtained:
[1] = tested on: Aβ-plaques isolated from AD brains; experiment: Ex vivo disaggregation of Aβ-plaques (TEM); parameters: species or system human; settings: compound 50 μM, 120 hours at 37° C., vs 1.5% DMSO
Text: Amyloid-β plaques were purified from postmortem human AD brains obtained from patients diagnosed with advanced Alzheimer's (Braak stage V or VI) (Tissue Biobank at Case Western Reserve University-Cleveland Clinic) using ultracentrifugation with a sucrose gradient and cell sorting, as previously published.^38-39 Purified amyloid-β plaques were examined with polarized and fluorescence microscopy (Congo Red and Thioflavin-S staining) and scanning electron microscopy. Each aliquot of amyloid-β plaques was solubilized with 60 μL of 10 mM PBS buffer (pH 7.4). One extraction consisted of 0.28 mg/ml of protein, as measured with nanodrop (A260/280 nm). A volume of 20 μL of extraction was incubated with 1.5% DMSO (control) or compound 10 (50 μM) for 120 hours at 37° C. prior to visualization by transmission electron microscopy.
The protein quantification of the plaques isolated from AD brains were measured with nanodrop. […] Compound 10 was tested at 50 μM based on the protein levels and results obtained with PICUP experiments (FIG. 7). AP-plaque samples were incubated with 1.5% DMSO (control) or compound 10 (50 μM) in 10 mM PBS buffer (pH 7.4) for 120 hours at 37° C. prior to visualization by transmission electron microscopy. During the visualization of the grids, several paired helical filaments were observed.

alpha-synuclein (α-syn) = target: T1, alpha-synuclein (α-syn) (Homo sapiens, UniProt P37840); experiment: Thioflavin T (ThT) fluorescence assay of α-syn fibril formation; type: biochemical; settings: compound 100 μM
T1 construct: purchased rPeptide
Protocol: Thioflavin fluorescence assays. Thioflavin fluorescence assays were used to monitor fibril formation of recombinant α-syn, tau isoform 2N4R, treated with control DMSO and different compounds. Kinetics of α-syn fibrillization were performed using thioflavin T (ThT) as published previously.^32′ ^37 The fluorescence emission experiments were performed with the excitation and emission wavelengths set at 440 and 485 nm, respectively, with a Synergy HT multi-mode microplate reader (BioTek, Winooski, VT). Samples were measured in three replicates and the experiments were repeated three times using at least two different stock solutions. For each time point, arbitrary units of fluorescence were calculated from the mean values normalized against the maximum value in each completed assay. All results contained in FIG. 1 were presented as mean±SEM.
FIG. 1. Chemical structure, physicochemical descriptors, and the effect of compounds on alpha-synuclein (α-syn) aggregation measured as fluorescence intensity using ThT assay. TPSA, Log P, and Log D were obtained with SwissADME. BBB and pKa were obtained from the Blood-Brain Barrier Prediction Server (https://www.cbligand.org/BBB/) and Chemaxon, respectively. CNS MPO scores were assessed as published previously, The ThT (%) represent the maximum fluorescence intensity obtained at the plateau phase of the kinetics of fibrillization using 6.25 μM of α-syn. Compounds were tested at 100 μM (molar ratio 1:16). BBB, blood-brain barrier; C log D, calculated distribution coefficient at 7.4; C log P, calculated partition coefficient; CNS MPO, Central Nervous System Multi Parameter Optimization; HBA, Hydrogen Bond Acceptor; HBD, Hydrogen Bond Donor; LR5, Lipinski's rule of five; pKa, negative log of acid dissociation constant; ThT, Thioflavin T; TPSA, Topological polar surface area.

tau isoform 2N4R [2] = target: T2, tau isoform 2N4R (Homo sapiens, UniProt P10636); experiment: TEM of tau isoform 2N4R fibrils; type: biochemical; settings: protein 60 μM, compound 600 μM (1:10), 24 hours at 37° C.
T2 construct: made in house; host or cells: E. coli BL21(DE3)
Protocol: (§1) Chemical and peptide source. DMSO and thioflavin-T (ThT) were purchased from Alfa Aesar (Ward Hill, MA). Procuration of recombinant α-syn was from rPeptide (WatKinsville, GA). The recombinant p-tau isoform 1N4R was prepared as published previously.^31, 36 Concerning the preparation of tau 2N4R, bacterial expression plasmid consisting of the vector pRK172 carrying a cDNA encoding the human Tau 2N4R isoform was a kind gift of Dr. David Eliezer (Weill Cornell Medicine). For protein expression, E. coli BL21(DE3) cells were transformed with the plasmid and grown in LB media supplemented with ampicillin (100 μg/mL). Protein over-expression was induced by the addition of 1 mM IPTG for 4 h at 37° C., and cells were pelleted by centrifugation at 6,000 g for 15 min at 4° C. The cells were resuspended in lysis buffer (20 mM MES, 400 mM NaCl, 0.2 mM MgCl2, 1 mM EGTA, protease inhibitor cocktail (P8340, Sigma Aldrich), 0.25 mg/mL lysozyme, and 1 μg/mL DNase I, pH 6.8) and lysed by a French press cell disruptor at 4° C., and the lysate was boiled for 20 min. Denatured proteins were pelleted by centrifugation at 30,000 g for 30 min at 4° C., and the supernatant was dialyzed overnight against cation exchange buffer (20 mM MES, 50 mM NaCl, 1 mM MgCl2, 1 mM EGTA, 2 mM DTT, 0.1 mM PMSF, pH 6.8). The dialysate was loaded onto a HiPrep SP HP column, and proteins were eluted with a linear gradient ranging from 50 mM to 1 M NaCl. Fractions containing tau isoform 2N4R were pooled, and the resulting protein solution was dialyzed against PBS (pH 7.4) and stored at −80° C.
To confirm the general anti-fibrillar effect of compound 10, transmission electron microscopy (TEM) was used as an orthogonal assay. After incubating recombinant proteins (at 60 μM) with 600 μM compound 10 for 24 hours at 37° C., TEM was utilized to detect fibril formation.^32 A volume of 10 μL was applied on a 400-mesh Formvar-carbon-coated copper grid (Electron Microscopy Sciences, Hatfield, PA). The grids were incubated for 1 minute and washed three times with distilled water. […]

tau isoform 2N4R [3] = target: T2, tau isoform 2N4R; experiment: ThT fluorescence assay of tau isoform 2N4R fibril formation; type: biochemical; settings: compound 100 μM, tau 2N4R 6 μM
Protocol: as §1

[4] = Half-life and brain penetration in mice; type: in vivo; settings: CD1 mice, 1 mg/kg
Text: The concentration ration plasma:brain is near to one which is adequate.

T2 sequence (P10636 1-441 isoform P10636-8): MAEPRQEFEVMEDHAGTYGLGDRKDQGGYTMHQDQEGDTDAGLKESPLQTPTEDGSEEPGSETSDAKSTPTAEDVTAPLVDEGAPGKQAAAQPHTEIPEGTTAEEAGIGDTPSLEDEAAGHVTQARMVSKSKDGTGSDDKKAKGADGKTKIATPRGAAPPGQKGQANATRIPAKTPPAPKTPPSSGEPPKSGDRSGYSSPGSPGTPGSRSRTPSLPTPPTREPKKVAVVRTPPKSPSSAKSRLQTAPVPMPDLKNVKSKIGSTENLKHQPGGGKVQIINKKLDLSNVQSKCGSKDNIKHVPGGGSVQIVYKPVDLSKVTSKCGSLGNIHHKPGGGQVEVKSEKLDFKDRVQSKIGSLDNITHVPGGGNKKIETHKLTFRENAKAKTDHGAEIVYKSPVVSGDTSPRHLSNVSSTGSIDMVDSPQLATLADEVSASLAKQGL

In the case of `c1cc(Nc2ncnc(Nc3cccc4[nH]ccc34)n2)c2cc[nH]c2c1` [Compound 10, N2,N4-bis(1H-indol-4-yl)-1,3,5-triazine-2,4-diamine], the “disaggregation of Aβ-plaques (TEM, in words)” value [1] is reported as “smaller AP-plaques; also recorded: disaggregated human Aβ plaques and NFTs”, the “lag time of α-syn fibril elongation” value (alpha-synuclein (α-syn); α-syn 6 μM) is reported as “delayed slightly the lag time” and the activity at 100 µM (alpha-synuclein (α-syn); α-syn 6.25 μM (molar ratio 1:16), compared with DMSO control, mean±SEM, read-out: ThT fluorescence intensity (FI), maximum at the plateau phase of α-syn fibrillization) is reported as 13.5 ± 1.7%. The “tau isoform 2N4R fibril ultrastructure (TEM)” value (tau isoform 2N4R [2]) was “needle-shaped short fibrils; also recorded: very short needle shaped fibrils admixed with debris”, the “elongation rate of tau isoform 2N4R fibrillization” value (tau isoform 2N4R [3]) was “slower elongation rate” and the “tau isoform 2N4R fibrillization (in words)” value (tau isoform 2N4R [3]; heparin 1.5 μM) was “markedly inhibited tau isoform 2N4R fibrillization”. For the same molecule, the “concentration ratio plasma:brain” value [4] was “near to one”, the “crossing of the blood brain barrier” value [4] was “crossed the blood brain barrier” and the half-life [4] was “short half-life”.
